Assay results reported in ChEMBL document CHEMBL5370665, “Insight from Linker Investigations: Discovery of a Novel Phenylbenzothiazole Necroptosis Inhibitor Targeting Receptor-Interacting Protein Kinase 1 (RIPK1) from a Phenoxybenzothiazole Compound with Dual RIPK1/3 Targeting Activity” (J Med Chem, 2023).
Active and inactive are the calls of the source.

Experiments:
HT-29 = assay: Anti-apoptotic activity against human HT-29 cells assessed as inhibition of TS (human TNFalpha, Smac mimetic) induced apoptosis upto 1 uM pretreated with compound followed […] for 24 hrs by CellTiter-Glo Luminescent cell viability assay; type: functional, cell-based
[1] = target: Receptor-interacting serine/threonine-protein kinase 3 (Homo sapiens, UniProt Q9Y572); assay: Inhibition of RIPK3 phosphorylation in TSZ induced human HT-29 cells at 1 uM pretreated with compound followed by TSZ stimulation for 6 hrs by Western blot analysis; type: cell-based
Mus musculus [2] = assay: Anti-inflammatory activity against C57BL/6J mouse model of TNFalpha-induced systemic inflammatory response syndrome (SIRS) assessed as increase in body temperature at 2.5 mg/kg,po 2 hrs prior to mTNFalpha and z-VAD-FMK stimulation and measured upto 18 hrs by electric thermometer analysis; type: functional, organism-based; details: time 20.0 hrs
Mus musculus [3] = assay: Anti-inflammatory activity against C57BL/6J mouse model of TNFalpha-induced systemic inflammatory response syndrome (SIRS) assessed as increase in body temperature at 5 mg/kg,po 2 hrs prior to mTNFalpha and z-VAD-FMK stimulation and measured upto 18 hrs by electric thermometer analysis; type: functional, organism-based; details: time 20.0 hrs
Mus musculus [4] = assay: Anti-inflammatory activity against C57BL/6J mouse model of TNFalpha-induced systemic inflammatory response syndrome (SIRS) assessed as decrease in IL-6 level in liver at 1.25 to 5 mg/kg,po 2 hrs prior to mTNFalpha and z-VAD-FMK stimulation for 8 hrs by ELISA; type: functional, organism-based; details: dose 1.25-5 mg/kg, time 10.0 hrs
Mus musculus [5] = assay: Anti-inflammatory activity against C57BL/6J mouse model of TNFalpha-induced systemic inflammatory response syndrome (SIRS) assessed as decrease in IL-6 level in lung at 1.25 to 5 mg/kg,po 2 hrs prior to mTNFalpha and z-VAD-FMK stimulation for 8 hrs by ELISA; type: functional, organism-based; details: dose 1.25-5 mg/kg, time 10.0 hrs
Mus musculus [6] = assay: Anti-inflammatory activity against C57BL/6J mouse model of TNFalpha-induced systemic inflammatory response syndrome (SIRS) assessed as decrease in IL-1beta level in heart at 1.25 to 5 mg/kg,po 2 hrs prior to mTNFalpha and z-VAD-FMK stimulation for 8 hrs by ELISA; type: functional, organism-based; details: dose 1.25-5 mg/kg, time 10.0 hrs
Mus musculus [7] = assay: Anti-inflammatory activity against C57BL/6J mouse model of TNFalpha-induced systemic inflammatory response syndrome (SIRS) assessed as decrease in serum IL-6 level at 5 mg/kg,po 2 hrs prior to mTNFalpha and z-VAD-FMK stimulation for 8 hrs by ELISA; type: functional, organism-based; details: time 10.0 hrs
[8] = Acute toxicity in mouse assessed as body weight loss at 100 to 200 mg/kg,IG and measured upto 14 days; type: organism-based; details: in vivo, po, 336 h, dose 100-200 mg/kg, time < 14 day
[9] = Acute toxicity in mouse assessed as behavioral changes at 100 to 200 mg/kg,IG and measured upto 14 days; type: organism-based; details: in vivo, po, 336 h, dose 100-200 mg/kg, time < 14 day
[10] = Acute toxicity in mouse assessed as pathological damage in heart at 100 to 200 mg/kg,IG and measured after 14 days by H and E staining based microscopy; type: organism-based; details: in vivo, po, 336 h, dose 100-200 mg/kg, time 14 day
[11] = Acute toxicity in mouse assessed as pathological damage in kidney at 100 to 200 mg/kg,IG and measured after 14 days by H and E staining based microscopy; type: organism-based; details: in vivo, po, 336 h, dose 100-200 mg/kg, time 14 day

Chain of Receptor-interacting serine/threonine-protein kinase 3 (Q9Y572 whole entry, looked up): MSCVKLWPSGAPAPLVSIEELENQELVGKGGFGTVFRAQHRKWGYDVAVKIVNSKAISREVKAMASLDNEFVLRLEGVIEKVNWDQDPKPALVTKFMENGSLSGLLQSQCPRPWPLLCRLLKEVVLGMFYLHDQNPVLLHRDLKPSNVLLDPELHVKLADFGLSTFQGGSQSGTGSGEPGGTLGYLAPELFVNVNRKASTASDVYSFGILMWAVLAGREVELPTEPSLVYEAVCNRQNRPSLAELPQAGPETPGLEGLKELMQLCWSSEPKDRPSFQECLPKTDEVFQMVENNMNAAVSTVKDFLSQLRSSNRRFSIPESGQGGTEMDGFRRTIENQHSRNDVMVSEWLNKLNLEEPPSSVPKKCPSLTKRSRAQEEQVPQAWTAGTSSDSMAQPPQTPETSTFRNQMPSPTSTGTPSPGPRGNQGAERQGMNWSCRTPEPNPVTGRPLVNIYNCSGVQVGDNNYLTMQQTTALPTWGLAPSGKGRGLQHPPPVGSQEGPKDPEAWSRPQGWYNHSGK

O=C(Cc1cccc(OC(F)(F)F)c1)Nc1cc(-c2ccc3nc(NC(=O)C4CC4)sc3c2)ccc1F
active: inhibition [1] | Activity (Mus musculus [2]) | Activity (Mus musculus [3]) | Activity (Mus musculus [4]) Dose-Dependent Effect | Activity (Mus musculus [5]) Dose-Dependent Effect | Activity (Mus musculus [7])
inactive: Activity (HT-29) | Activity (Mus musculus [6])
Non-Toxic: Activity [8] | Activity [9] | Activity [10] | Activity [11]
